The values below come from paper PMC9221018, “Sulfonamide-Derived Dithiocarbamate Gold(I) Complexes Induce the Apoptosis of Colon Cancer Cells by the Activation of Caspase 3 and Redox Imbalance” (Biomedicines, 2022).

Read-outs that look alike come from different tables or passages of the source.

The subject of data set [1] is Caco-2 cells. As to the kind of experiment: MTT cytotoxicity assay in undifferentiated Caco-2 cells. It counts as cell-based, human. Here is the method: (§1) The human Caco-2 cell line (TC7 clone) was kindly provided by Dr. Edith Brot-Laroche (Université Pierre et Marie Curie-Paris 6, UMR S 872, Les Cordeliers, France). Human epithelial fibroblast cells (NHDF-Ad, Lonza®®, Porriño, Spain) were kindly provided by Dr. Gracia Mendoza (Aragon Health Research Institute, IIS Aragón, Spain). Caco-2 cells (passages 40–70) and fibroblasts (passages 10–30) were maintained in a humidified atmosphere of 5% CO2 at 37 °C and grown in medium following the method used by Quero et al.. The Caco-2 cells were sub-cultured in 25 cm^2 plastic flasks at a density of 1.2 × 10^4 cells/cm^2, while the fibroblasts were sub-cultured on 75 cm^2 plastic flasks at a density of 1 × 10^4 cells/cm^2. The culture medium was replaced every 2 days.
(§2) The gold complexes were diluted in dimethyl sulfoxide (DMSO) as a 10 mM stock solution, and then diluted in cell culture medium at the desired concentrations.
(§3) For the cytotoxicity screening assays, Caco-2 cells were seeded in 96-well plates at a density of 4 × 10^3 cells/well. The culture medium was replaced with medium containing the drug panel 24 h post-seeding, and the cells were incubated for 24, 48 and 72 h. […] In differentiated Caco-2 and fibroblasts, culture medium containing metal gold complexes was added 15 days post-seeding, and the cells were incubated for 72 h. The antiproliferative effect was measured using an MTT assay, as previously described by Mármol et al.. The absorbance at 540/620 nm was measured using a SPECTROstar Nano (BMG Labtech, Ortenberg, Germany). In order to determine the selectivity index (SI), the IC50 value of the differentiated Caco-2 cells was divided by IC50 value in undifferentiated Caco-2, obtaining the ratio of the normal/cancerous cells’ toxicity.
(In general: Formazan colour is commonly taken as a measure of viable cells.)

A short description of data set [2]: n-octanol-water distribution coefficient, shake-flask method. The settings on record: n-octanol/buffered saline pH 7.4, shake-flask. It counts as physicochemical. The procedure:
The n-octanol−water coefficients of the complexes were determined using a shake-flask method, as reported previously. Briefly, 100 mL buffered-saline (0.15 M NaCl, 10 mM phosphate [PO4^3−] buffer, pH 7.4) and 100 mL n-octanol were shaken for 72 h. The addition of 1 mg of the complexes followed by the centrifugation and separation of both phases gave two solutions, which were analysed by UV absorbance spectroscopy to determine their concentration in each phase. The corresponding value of log P was defined as log{[compound(organic)]/[compound(aqueous)]}.

Data set [3] relates to differentiated Caco-2 cells. As to the kind of experiment: MTT cytotoxicity assay in differentiated Caco-2 cells (healthy cell model). It counts as cell-based, human. The settings on record: for decrease of cell viability: complexes at their IC50 (1 1.14 μM, 3 1.7 μM, 8 7.22 μM, 9 8.56 μM), 72 h; for IC50: treatment for 72 h. Here is the method: as §1, §2, §3
Data set [4] has as its system Human epithelial fibroblast cells (NHDF-Ad). The experiment in a line: MTT viability assay in human epithelial fibroblasts. The conditions noted are these: complexes at their IC50 (1 1.14 μM, 3 1.7 μM, 8 7.22 μM, 9 8.56 μM), 72 h. It counts as cell-based. The procedure: as §1, §2, §3
[5] abbreviates: treatment for 72 h, read-out: IC50.
[6] abbreviates: 24 h incubation, read-out: IC50 24 h.
Where [7] appears, read: 48 h incubation, read-out: IC50 48 h.
The mark [8] stands for this setting: 72 h incubation, read-out: IC50 72 h.

For orientation: IC50 means the concentration at which inhibition is half-maximal. Regarding “[Au(S2CNHSO2-p-Me-C6H4)(IBnPropargyl)] [Complex 10]”, in data set [1] (setting [5]), the IC50 amounted to 13.2 ± 3.34 µM.
Turning to “[Au(S2CNHSO2-p-Cl-C6H4)(TPPTS)] [Complex 6]”, in data set [1] (setting [5]), the IC50 is 33.7 ± 2.74 µM. The “Log P7.4” value in data set [2] was −0.83.
As for [Au(S2CNHSO2C6H5)(TPPTS)] [Complex 4], the IC50 in data set [1] (setting [5]) is 46.7 ± 5.61 µM. The “Log P7.4” value in data set [2] is recorded as −0.40.
For the compound “[Au(S2CNHSO2-p-Cl-C6H4)(PPh3)] [Complex 3]”, the IC50 in data set [1] (setting [6]) stood at 2.48 ± 0.14 µM; in data set [1] (setting [7]), 1.51 ± 0.1 µM; in data set [1] (setting [8]), 1.7 ± 0.15 µM; in data set [1] (setting [5]) it was 1.7 ± 0.15 µM; in data set [3] it was 14.3 ± 0.19 µM. Moreover, the “decrease of cell viability” value in data set [3] and in data set [4] was “did not compromise the viability” in each case. For the same compound, the “Log P7.4” value in data set [2] is reported as 0.91.
Take `Cc1ccc(S(=O)(=O)NC(=S)[S][Au][PH](c2cccc(S(=O)(=O)[O-])c2)(c2cccc(S(=O)(=O)[O-])c2)c2cccc(S(=O)(=O)[O-])c2)cc1.[Na+].[Na+].[Na+]` [Complex 5, [Au(S2CNHSO2-p-Me-C6H4)(TPPTS)]]: the IC50 in data set [1] (setting [5]) is 31.8 ± 6.05 µM. In addition, the “Log P7.4” value in data set [2] is −0.78.
Consider `C#CCn1ccn(Cc2ccccc2)[c]1=[Au-].O=S(=O)(NC(=S)[S-])c1ccccc1` [Complex 9, [Au(S2CNHSO2C6H5)(IBnPropargyl)]], for which the IC50 was found to be 31.2 ± 6.85 µM in data set [1] (setting [6]); 15.5 ± 1.89 µM in data set [1] (setting [7]); 8.56 ± 1.68 µM in data set [1] (setting [8]); 8.56 ± 1.68 µM in data set [1] (setting [5]); 19.5 ± 2.64 µM in data set [3]. The “decrease of cell viability” value in data set [3] and in data set [4] was “approximately 39%” each time. Further, the “Log P7.4” value in data set [2] stood at 0.42.
Regarding “[Au(S2CNHSO2-p-Me-C6H4)(PPh3)] [Complex 2]”, in data set [1] (setting [5]), the IC50 stood at 1.25 ± 0.35 µM. The “Log P7.4” value in data set [2] was 0.71.
With `C#CCn1ccn(C)[c]1=[Au-].O=S(=O)(NC(=S)[S-])c1ccccc1` [Complex 7, [Au(S2CNHSO2C6H5)(IMePropargyl)]], the IC50 in data set [1] (setting [5]) stood at 33.3 ± 5.01 µM. Moreover, the “Log P7.4” value in data set [2] is 0.35.
